Assay results as given in patent US11826402B2, “Combination therapy involving antibodies against claudin 18.2 for treatment of metastatic pancreatic adenocarcinoma” (Astellas Pharma Inc., priority 2013, dated 2023).

Tests used:
[1] = Repeated dose toxicity study in mice; assay type: in vivo
[2] = test system: CLDN18.2 on the cell surface of pancreatic cancer cell lines; assay: Flow cytometry (FACS) of IMAB362 on pancreatic cancer cell lines; assay type: binding, human; details: 2E5 cells/100 μl with 50 μg/ml IMAB362
Procedure: (§1) Cells were harvested with PBS/5 mM EDTA or Trypsin/EDTA from an exponentially growing culture at 70-85% confluency. Cells were counted, centrifuged for 5 min (468 g) and the pellet was resuspended in FACS buffer (2% FCS, 0.1% sodium azide in PBS) adjusting the concentration to 2×10^6/ml. 100 μl cells were plated in round bottom 96-well plates and again centrifuged (5 min, 468 g). […] Then, 200 μl FACS buffer was added to each well and plates were centrifuged (5 min, 468 g). The supernatant was removed and washing was repeated. Secondary goat anti-human antibodies (FC specific, F(ab′)2 conjugated with APC (Dianova)) were diluted (1:100) in FACS buffer and 30 μl was added to each well. Plates were incubated for 30 min at 4° C. After incubation plates were washed again two times with 200 μl FACS buffer and the pellet was finally resuspended in 100 μl FACS buffer for measurement FACS Array Bioanalyzer (BD) according to GA_018_BD FACS Array bioanalyzer.

[3] = Repeated dose toxicity study in cynomolgus monkeys; assay type: in vivo
HPAFII = assay: IMAB362-mediated ADCC assay; assay type: cell-based, human; details: at least 2 donors
HUP-T3 = assay: IMAB362-mediated ADCC assay; assay type: cell-based, human; details: at least 2 donors
Suit2-LVT cells = assay: FACS binding to Suit2-LVT cells; parameters: species or system human; details: 200 μg/ml antibody
Procedure: as §1
In addition to tissue processing, it is possible that the result represents unexpected inhibiting effects of the isotype control antibody targeting CLDN6. To investigate this option, the Suit2-LVT cells were analyzed for CLDN6 expression and IMAB027 binding in FACS.

BxPC3-CLDN18 = assay: IMAB362 mediated apoptosis of gemcitabine treated pancreas tumor cells; assay type: cell-based, human; details: BxPC3-CLDN18, medium or 100 ng/ml gemcitabine, after 48 hours
Procedure: BxPC3-CLDN18 were cultivated in medium or medium+100 ng/ml gemcitabine. Apoptotic cell fraction of […] were shifted. Similar shifts were obtained by incubation of tumor cells with Camptotecin.
Following the indicated treatments, apoptosis was measured by annexin V binding (detection kit I) or by a DNA fragmentation assay (Apo-Direct) as recommended by the manufacturer (PharMingen, San Diego, Calif.). Briefly, cells floating in the supernatant were combined with the adherent fraction, which was trypsinized and then washed. An aliquot of 5 E+05 cells was incubated with annexin V-APC and PI for 15 min at room temperature in the dark. Cells were immediately analyzed by flow cytometry. Viable cells exclude both annexin V-APC and PI. Early apoptotic cells are annexin V-APC-positive and PI-negative, whereas cells that are no longer viable due to apoptotic or necrotic cell death are positively stained by both annexin V and PI. Percentage of stained cells in each quadrant was quantified using FlowJo software (BD Biosciences, Franklin Lakes, N.J.).
The apoptotic assay based on DNA fragmentation was performed as follows. Treated cells (adherent and floating) were fixed in 70% icecold EtOH overnight. […] Cells were rinsed, incubated in RNase A/propidium iodide in the dark for 30 min at room temperature to stain total DNA, then analyzed by flowvcytometry. […]

NUGC-4 = assay: Apoptosis by cross-linking of IMAB362 (TUNEL assay); assay type: cell-based, human; details: within 18-42 hours
Procedure: (§2) The apoptotic assay based on DNA fragmentation was performed as follows. Treated cells (adherent and floating) were fixed in 70% icecold EtOH overnight. After washing, 10^6 fixed cells were incubated with terminal deoxynucleotidyl transferase enzyme (TdT) and FITC-dUTP for 90 min at 37° C. to label DNA breaks. Cells were rinsed, incubated in RNase A/propidium iodide in the dark for 30 min at room temperature to stain total DNA, then analyzed by flowvcytometry. Cell doublets and clumps were eliminated from the analysis by gating.
(§3) The magnitude of apoptosis correlates with the dose of the antibody and level of target expression on the cancer cell. Treatment with gemcitabine leads to cell cycle arrest of tumor cells followed by apoptotic cell death.

KATO-III = assay: as above; assay type: cell-based, human; details: within 18-42 hours
Procedure: as §2, §3

HUP-T4 = assay: IMAB362-mediated ADCC assay; assay type: cell-based, human; details: at least 2 donors

Substance: IMAB362: chimeric IgG1 antibody directed against CLDN18.2, developed by Ganymed Pharmaceuticals AG
- gastric toxicity ([1]; any toxicity study): no gastric toxicity
- tolerability of repeated doses i.v. ([1]; weekly for 3 months, up to 400 mg/kg): well tolerated
- CLDN18 surface expression (FACS) ([2]; AsPC1): 0.14%
- CLDN18 surface expression (FACS) ([2]; BxPC3 (ATCC)): 1.16%
- CLDN18 surface expression (FACS) ([2]; BxPC3 (ECACC)): 0.90%
- CLDN18 surface expression (FACS) ([2]; CAPAN1): 0.54%
- CLDN18 surface expression (FACS) ([2]; CFPAC1): 0.55%
- CLDN18 surface expression (FACS) ([2]; DANG): 1.19%
- CLDN18 surface expression (FACS) ([2]; HPAC): 0.81%
- CLDN18 surface expression (FACS) ([2]; HPAFII): 10.00%
- CLDN18 surface expression (FACS) ([2]; HUP-T3): 0.23%
- CLDN18 surface expression (FACS) ([2]; HUP-T4): 5.30%
- CLDN18 surface expression (FACS) ([2]; KP-2): 0.54%
- CLDN18 surface expression (FACS) ([2]; MiaPaCa2): 0.22%
- CLDN18 surface expression (FACS) ([2]; Panc01): 65%
- CLDN18 surface expression (FACS) ([2]; Panc03.27): 7.30%
- CLDN18 surface expression (FACS) ([2]; Panc04.03): 1.38%
- CLDN18 surface expression (FACS) ([2]; Panc05.04): 15%
- CLDN18 surface expression (FACS) ([2]; Patu8902): 0.39%
- CLDN18 surface expression (FACS) ([2]; Patu8988T): 6.00%
- CLDN18 surface expression (FACS) ([2]; SW1990): 2.53%
- CLDN18 surface expression (FACS) ([2]; Su86.86): 1.51%
- CLDN18 surface expression (FACS) ([2]; Suit2): 0.41%
- CLDN18 surface expression (FACS) ([2]; YPAC): 0.23%
- gastric toxicity ([3]; any toxicity study): no gastric toxicity
- tolerability of repeated doses i.v. ([3]; up to 5 weekly applications of up to 100 mg/kg): well tolerated
- ADCC EC50 (HPAFII): n.m.
- ADCC Max. lysis (HPAFII): n.m.
- ADCC EC50 (HUP-T3): n.m.
- binding to cells in FACS (Suit2-LVT cells): strong binding
- induction of apoptosis (BxPC3-CLDN18): Apoptosis induced by cross-linking
- induction of apoptosis (NUGC-4): induces direct apoptosis
- induction of apoptosis (KATO-III): induces direct apoptosis
- ADCC EC50 (HUP-T4): n.m.
- ADCC Max. lysis (HUP-T4): n.m.
